# Read-outs that look alike come from different tables or passages of the source.
# Assays:
# [1] = tested on: mRNA expressed from the genes (A) to (D) in rat liver; assay: Behavior of genes (mRNA expression level, oligo-DNA microarray) in rat liver after 28-day oral administration; assay type: in vivo
# In short: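 Liver mRNA measured by oligo-DNA microarray after 28 days of once-daily oral gavage in 5-week-old male F344 rats (n=4 per group), with vehicle controls given equal solvent volume. Significance threshold: 1.5-fold up or down versus control, with changes opposite in direction to other carcinogens counted as not significant.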
# [2] = tested on: liver; conditions: cited from earlier work
# [3] = tested on: rodent; conditions: cited from earlier work
# [4] = cited from earlier work
# [5] = gene group (A), Unigene No. Rn.167075
# [6] = gene group (C), Unigene No. Rn.120914
smiles,measurement,setting,value
"Cc1ccc(N)cc1Cl [TS080, 3-Chloro-p-toluidine]","Behavior of gene caused by administration of chemical substance, Gene No. 4846","[1]; gene group (A), Unigene No. Rn.144554",+
same,"Behavior of gene caused by administration of chemical substance, Gene No. 2026",[1]; [5],+
same,"Behavior of gene caused by administration of chemical substance, Gene No. 4218",[1]; [5],+
same,"Behavior of gene caused by administration of chemical substance, Gene No. 6182","[1]; gene group (A), Unigene No. Rn.5834",+
same,"Behavior of gene caused by administration of chemical substance, Gene No. 5600","[1]; gene group (A), Unigene No. Rn.9836",+
same,"Behavior of gene caused by administration of chemical substance, Gene No. 1494","[1]; gene group (B), Unigene No. Rn.1430",+
same,"Behavior of gene caused by administration of chemical substance, Gene No. 2045","[1]; gene group (B), Unigene No. Rn.19329",−
same,"Behavior of gene caused by administration of chemical substance, Gene No. 2203","[1]; gene group (B), Unigene No. Rn.21240",+
same,"Behavior of gene caused by administration of chemical substance, Gene No. 533","[1]; gene group (C), Unigene No. Rn.106184",+
same,"Behavior of gene caused by administration of chemical substance, Gene No. 725","[1]; gene group (C), Unigene No. Rn.108075",+
same,"Behavior of gene caused by administration of chemical substance, Gene No. 1163","[1]; gene group (C), Unigene No. Rn.11766",−
same,"Behavior of gene caused by administration of chemical substance, Gene No. 4973","[1]; gene group (C), Unigene No. Rn.118529",+
same,"Behavior of gene caused by administration of chemical substance, Gene No. 4095","[1]; gene group (C), Unigene No. Rn.119024",+
same,"Behavior of gene caused by administration of chemical substance, Gene No. 1334",[1]; [6],−
same,"Behavior of gene caused by administration of chemical substance, Gene No. 6620",[1]; [6],−
same,"Behavior of gene caused by administration of chemical substance, Gene No. 6303","[1]; gene group (C), Unigene No. Rn.123063",−
same,"Behavior of gene caused by administration of chemical substance, Gene No. 5878","[1]; gene group (C), Unigene No. Rn.143213",−
same,"Behavior of gene caused by administration of chemical substance, Gene No. 1131","[1]; gene group (C), Unigene No. Rn.144946",−
same,"Behavior of gene caused by administration of chemical substance, Gene No. 1562","[1]; gene group (C), Unigene No. Rn.14744",−
same,"Behavior of gene caused by administration of chemical substance, Gene No. 1741","[1]; gene group (C), Unigene No. Rn.1647",−
same,"Behavior of gene caused by administration of chemical substance, Gene No. 893","[1]; gene group (C), Unigene No. Rn.164817",+
same,"Behavior of gene caused by administration of chemical substance, Gene No. 6026","[1]; gene group (C), Unigene No. Rn.167685",−
same,"Behavior of gene caused by administration of chemical substance, Gene No. 154","[1]; gene group (C), Unigene No. Rn.185941",+
same,"Behavior of gene caused by administration of chemical substance, Gene No. 1993","[1]; gene group (C), Unigene No. Rn.18728",−
same,"Behavior of gene caused by administration of chemical substance, Gene No. 813","[1]; gene group (C), Unigene No. Rn.201760",+
same,"Behavior of gene caused by administration of chemical substance, Gene No. 2494","[1]; gene group (C), Unigene No. Rn.23969",−
same,"Behavior of gene caused by administration of chemical substance, Gene No. 2546","[1]; gene group (C), Unigene No. Rn.24561",+
same,"Behavior of gene caused by administration of chemical substance, Gene No. 3776","[1]; gene group (C), Unigene No. Rn.43232",−
same,"Behavior of gene caused by administration of chemical substance, Gene No. 3929","[1]; gene group (C), Unigene No. Rn.4620",−
same,"Behavior of gene caused by administration of chemical substance, Gene No. 1119","[1]; gene group (C), Unigene No. Rn.9757",−
same,"Behavior of gene caused by administration of chemical substance, Gene No. 6742","[1]; gene group (C), Unigene No. Rn.9779",−
same,"Behavior of gene caused by administration of chemical substance, Gene No. 5634","[1]; gene group (C), Unigene No. Rn.9862",−
same,"Behavior of gene caused by administration of chemical substance, Gene No. 5726","[1]; gene group (D), Unigene No. Rn.9939",+
same,Liver carcinogenicity,[2]; classification of the substance (Cr+/Cr−),Cr−
same,Carcinogenicity,[3]; classification of the substance (C+/C−),C−
same,Mutagenicity by Ames test,[4]; classification of the substance (M+/M−),M−
"O=CCCCC=O [TS081, Glutaraldehyde]",Behavior of gene caused by administration of chemical substance,"[1]; Gene No. 154, Rn.185941, group (C)",−
same,Behavior of gene caused by administration of chemical substance,"[1]; Gene No. 533, Rn.106184, group (C)",+
same,Behavior of gene caused by administration of chemical substance,"[1]; Gene No. 725, Rn.108075, group (C)",−
same,Behavior of gene caused by administration of chemical substance,"[1]; Gene No. 813, Rn.201760, group (C)",−
same,Behavior of gene caused by administration of chemical substance,"[1]; Gene No. 893, Rn.164817, group (C)",−
same,Behavior of gene caused by administration of chemical substance,"[1]; Gene No. 1119, Rn.9757, group (C)",−
same,Behavior of gene caused by administration of chemical substance,"[1]; Gene No. 1131, Rn.144946, group (C)",−
same,Behavior of gene caused by administration of chemical substance,"[1]; Gene No. 1163, Rn.11766, group (C)",−
same,Behavior of gene caused by administration of chemical substance,"[1]; Gene No. 1334, Rn.120914, group (C)",−
same,Behavior of gene caused by administration of chemical substance,"[1]; Gene No. 1494, Rn.1430, group (B)",−
same,Behavior of gene caused by administration of chemical substance,"[1]; Gene No. 1562, Rn.14744, group (C)",−
same,Behavior of gene caused by administration of chemical substance,"[1]; Gene No. 1741, Rn.1647, group (C)",−
same,Behavior of gene caused by administration of chemical substance,"[1]; Gene No. 1993, Rn.18728, group (C)",−
same,Behavior of gene caused by administration of chemical substance,"[1]; Gene No. 2026, Rn.167075, group (A)",−
same,Behavior of gene caused by administration of chemical substance,"[1]; Gene No. 2045, Rn.19329, group (B)",−
same,Behavior of gene caused by administration of chemical substance,"[1]; Gene No. 2203, Rn.21240, group (B)",−
same,Behavior of gene caused by administration of chemical substance,"[1]; Gene No. 2494, Rn.23969, group (C)",−
same,Behavior of gene caused by administration of chemical substance,"[1]; Gene No. 2546, Rn.24561, group (C)",−
same,Behavior of gene caused by administration of chemical substance,"[1]; Gene No. 3776, Rn.43232, group (C)",−
same,Behavior of gene caused by administration of chemical substance,"[1]; Gene No. 3929, Rn.4620, group (C)",−
same,Behavior of gene caused by administration of chemical substance,"[1]; Gene No. 4095, Rn.119024, group (C)",−
same,Behavior of gene caused by administration of chemical substance,"[1]; Gene No. 4218, Rn.167075, group (A)",−
same,Behavior of gene caused by administration of chemical substance,"[1]; Gene No. 4846, Rn.144554, group (A)",−
same,Behavior of gene caused by administration of chemical substance,"[1]; Gene No. 4973, Rn.118529, group (C)",+
same,Behavior of gene caused by administration of chemical substance,"[1]; Gene No. 5600, Rn.9836, group (A)",−
same,Behavior of gene caused by administration of chemical substance,"[1]; Gene No. 5634, Rn.9862, group (C)",−
same,Behavior of gene caused by administration of chemical substance,"[1]; Gene No. 5726, Rn.9939, group (D)",−
same,Behavior of gene caused by administration of chemical substance,"[1]; Gene No. 5878, Rn.143213, group (C)",−
same,Behavior of gene caused by administration of chemical substance,"[1]; Gene No. 6026, Rn.167685, group (C)",−
same,Behavior of gene caused by administration of chemical substance,"[1]; Gene No. 6182, Rn.5834, group (A)",−
same,Behavior of gene caused by administration of chemical substance,"[1]; Gene No. 6303, Rn.123063, group (C)",−
same,Behavior of gene caused by administration of chemical substance,"[1]; Gene No. 6620, Rn.120914, group (C)",−
same,Behavior of gene caused by administration of chemical substance,"[1]; Gene No. 6742, Rn.9779, group (C)",+
same,Liver carcinogenicity,[2]; in vivo,Cr−
same,Carcinogenicity,[3]; classification C+/C−,C−
same,Mutagenicity by Ames test,[4]; classification M+/M−,M+

# — patent publication US20110039721A1, “METHOD FOR PREDICTION ABOUT CARCINOGENICITY OF SUBSTANCE IN RODENT” (Chemicals Evaluation and Research Institute, priority 2007, published 2011)
